# Measurements reported in patent US20100260737A1, “COMBINATION BETWEEN AN ISOTHIOCYANATE AND LEVODOPA FOR PARKINSON'S DISEASE TREATMENT” (priority 2007, published 2010).
# What was measured:
# SH-SY5Y cells [1] = test: H2O2-induced neuronal apoptosis after pre-treatment; assay type: cell-based; conditions: for toxic effects in SH-SY5Y cells: SUL 0.63 μM, L-DOPA 25 μM
# Procedure: It was also evaluated whether the combination could have synergistic effects against neuronal apoptosis induced by H2O2, an oxidant agent in the CNS. In particular, apoptosis is measured 15 h later than 3 h treatment with H2O2 (300 μM).
# SH-SY5Y cells [2] = test: L-DOPA-induced neurotoxicity, pulse/chase treatment, Annexin-V/propidium iodide double staining
# [3] = preliminary phase I study (Shapiro et al. 2006); cited from earlier work
# neurons = conditions: prolonged SUL treatment, in vitro; cited from earlier work
Compound,toxic effects in SH-SY5Y cells (SH-SY5Y cells [1]),"L-DOPA-induced apoptosis, post-treatment (SH-SY5Y cells [2]; SUL 2.5 μM added after L-DOPA (400 μM) treatment, FIG. 3)","L-DOPA-induced apoptosis, co-treatment (SH-SY5Y cells [2]; SUL 0.63-2.5 μM co-treated with L-DOPA 400 μM, FIG. 2)",toxicity in humans [3],"effect against 1 methyl-4-phenyl-1,2,3,6-tetrahydropyridine (neurons)",protection of neurons against 6-hydroxydopamine (neurons),protection of neurons against H2O2 damage (neurons),"H2O2-induced apoptosis after L-DOPA pre-treatment (SH-SY5Y cells [1]; pre-treatment 24 h, L-DOPA 25-100 μM tested, effect at more than 50 μM, H2O2 300 μM 3 h, read 15 h later, FIG. 4)"
"C[S+]([O-])CCCCN=C=S (stereo not drawn) [SUL, 4-(methylsulfinyl)butyl isothiocyanate]",did not show any toxic effects,significant decrease of apoptosis,dose-dependent inhibitory effect,absence of toxicity,does not show any effect,protects neurons,protects neurons,–
"N[C@@H](Cc1ccc(O)c(O)c1)C(=O)O [L-DOPA, 3,4-dihydroxyphenylalanine]",did not show any toxic effects,–,–,–,–,–,–,significantly decreased H2O2-induced apoptosis
